Test results published in patent US10689408B2, “Bisphosphonic acid compound” (FUJIYAKUHIN CO., LTD., priority 2016, dated 2020).

system: calcification in the aorta; assay: not given; conditions: dialysis patients; cited from earlier work

For `CC(O)(P(=O)(O)O)P(=O)(O)O` [etidronate, Etidronate], the “inhibition of calcification in the aorta” value is listed as “significantly inhibit calcification in the aorta”.

system: Vitamin D3-Induced Vascular Calcification Rat Model; assay: Ectopic calcification inhibitory effect in vitamin D3-induced vascular calcification rat model (amount of aortic phosphorus); format: in vivo, Male Wistar/ST rats; conditions: 336 h, dose 3 mg/kg, oral, once a day for 2 weeks, aortic phosphorus relative to control (vehicle), read-out: Rate of inhibition (%) of ectopic calcification
Text: Test Example: Ectopic Calcification Inhibitory Effect in Vitamin D3-Induced Vascular Calcification Rat Model
Male Wistar/ST rats were grouped according to their body weights as an index (6 individuals per group). Cholecalciferol (Wako Pure Chemical Industries, Ltd.) was subcutaneously administered at repeated doses of 125,000 IU/kg to each rat for 3 days to induce vascular calcification. Each test substance was orally administered at repeated doses once a day for 2 weeks from the day of administration of cholecalciferol. The rats were fasted from approximately 6 hours before the administration of the test substance to approximately 2 hours thereafter. On the day following the final administration, total blood was collected from the descending aorta of each rat under isoflurane anesthesia, and then, the aorta from the aortic root to the posterior limb bifurcation was excised. The aorta was chopped, then homogenized after adding 5 mL of 1 N hydrochloric acid and left at room temperature for 1 hour. After centrifugation at 15,000 rpm at 4° C. for 15 minutes, the obtained supernatant was used as a measurement sample. The amount of phosphorus in the measurement sample was measured using Phospha C-Test Wako (Wako Pure Chemical Industries, Ltd.) and used as an index for calcification. An average value of the amounts of aortic phosphorus in each group was determined to calculate the rate of inhibition of calcification by the administration of the test substance relative to a control (vehicle administration) (Table 7).

Going from `O=P(O)(O)C(O)(CC1CC2CCC1C2)P(=O)(O)O` (stereo not drawn) [Example 31, Disodium [2-(bicyclo[2.2.1]heptan-2-yl)-1-hydroxyethane-1,1-diyl]bisphosphonate] to `CC(C1CCCC1)C(O)(P(=O)(O)O)P(=O)(O)O` (stereo not drawn) [Example 8, Disodium (2-cyclopentyl-1-hydroxypropane-1,1-diyl)bisphosphonate], the inhibition in vivo at 3 mg/kg falls from 29% to 22%.

same assay, conditions: 336 h, dose 5 mg/kg, oral, once a day for 2 weeks, aortic phosphorus relative to control (vehicle), read-out: Rate of inhibition (%) of ectopic calcification

Compared with `CC1(CC(O)(P(=O)(O)O)P(=O)(O)O)CCCC1` [Example 11, Disodium [1-hydroxy-2-(1-methylcyclopentyl)ethane-1,1-diyl]bisphosphonate], `CC1(CC(O)(P(=O)(O)O)P(=O)(O)O)CCCCC1` [Example 30, Disodium [1-hydroxy-2-(1-methylcyclohexyl)ethane-1,1-diyl]bisphosphonate] is lower in inhibition in vivo at 5 mg/kg: 57% for the first, 47% for the second.

First: CC1(CC(O)(P(=O)(O)O)P(=O)(O)O)CCC1 [Example 4, Disodium [1-hydroxy-2-(1-methylcyclobutyl)ethane-1,1-diyl]bisphosphonate]
Second: CCC1(CC(O)(P(=O)(O)O)P(=O)(O)O)CCCC1 [Example 12, Disodium [2-(1-ethylcyclopentyl)-1-hydroxyethane-1,1-diyl]bisphosphonate]
The inhibition in vivo at 5 mg/kg of the first is higher: 39% for the first, 28% for the second.

First: CC1(C)CCC(CC(O)(P(=O)(O)O)P(=O)(O)O)C1 (stereo not drawn) [Example 21, Disodium [2-(3,3-dimethylcyclopentyl)-1-hydroxyethane-1,1-diyl]bisphosphonate]
Second: O=P(O)(O)C(O)(CC1CCC(F)(F)C1)P(=O)(O)O (stereo not drawn) [Example 23, Disodium [2-(3,3-difluorocyclopentyl)-1-hydroxyethane-1,1-diyl]bisphosphonate]
The inhibition in vivo at 5 mg/kg of the first is higher: 68% for the first, 43% for the second.

Compared with `O=P(O)(O)C(O)(C=C1CCCC1)P(=O)(O)O` [Example 7, Disodium (2-cyclopentylidene-1-hydroxyethane-1,1-diyl)bisphosphonate], `O=P(O)(O)C(O)(CC1CCCCC1)P(=O)(O)O` [Example 27, Disodium (2-cyclohexyl-1-hydroxyethane-1,1-diyl)bisphosphonate] is higher in inhibition in vivo at 5 mg/kg: 51% for the first, 82% for the second.

Going from `C[C@@H]1C[C@@H](CC(O)(P(=O)(O)O)P(=O)(O)O)C[C@@H]1C` [Example 25, Disodium {2-[(1s,3R,4S)-3,4-dimethylcyclopentyl]-1-hydroxyethane-1,1-diyl}bisphosphonate] to `C[C@@H]1C[C@H](CC(O)(P(=O)(O)O)P(=O)(O)O)C[C@@H]1C` [Example 24, Disodium {2-[(1r,3R,4S)-3,4-dimethylcyclopentyl]-1-hydroxyethane-1,1-diyl}bisphosphonate], the inhibition in vivo at 5 mg/kg rises from 64% to 93%.

Going from `CCCC1(CC(O)(P(=O)(O)O)P(=O)(O)O)CCCC1` [Example 13, Disodium [1-hydroxy-2-(1-propylcyclopentyl)ethane-1,1-diyl]bisphosphonate] to `C[C@H]1CC[C@H](CC(O)(P(=O)(O)O)P(=O)(O)O)C1` (relative stereo) [Example 17, Disodium {1-hydroxy-2-[(1R*,3R*)-3-methylcyclopentyl]ethane-1,1-diyl}bisphosphonate], the inhibition in vivo at 5 mg/kg rises from 53% to 80%.

Compared with `CC1(C)CC(CC(O)(P(=O)(O)O)P(=O)(O)O)CC(C)(C)C1` [Example 35, Disodium [1-hydroxy-2-(3,3,5,5-tetramethylcyclohexyl)ethane-1,1-diyl]bisphosphonate], `CC1(C)CC(CC(O)(P(=O)(O)O)P(=O)(O)O)CC1(C)C` [Example 26, Disodium [1-hydroxy-2-(3,3,4,4-tetramethylcyclopentyl)ethane-1,1-diyl]bisphosphonate] is lower in inhibition in vivo at 5 mg/kg: 71% for the first, 66% for the second.

Compared with `C[C@H]1CC[C@@H](CC(O)(P(=O)(O)O)P(=O)(O)O)C1` (relative stereo) [Example 16, Disodium {1-hydroxy-2-[(1R*,3S*)-3-methylcyclopentyl]ethane-1,1-diyl}bisphosphonate], `CC1CCC(CC(O)(P(=O)(O)O)P(=O)(O)O)C1` (stereo not drawn) [Example 15, Disodium [1-hydroxy-2-(3-methylcyclopentyl)ethane-1,1-diyl]bisphosphonate] is higher in inhibition in vivo at 5 mg/kg: 75% for the first, 87% for the second.

First: CC1CCCC1CC(O)(P(=O)(O)O)P(=O)(O)O (stereo not drawn) [Example 14, Disodium [1-hydroxy-2-(2-methylcyclopentyl)ethane-1,1-diyl]bisphosphonate]
Second: O=P(O)(O)C(O)(C[C@@H]1CC[C@@H](F)C1)P(=O)(O)O (relative stereo) [Example 18, Disodium {2-[(1R*,3R*)-3-fluorocyclopentyl]-1-hydroxyethane-1,1-diyl}bisphosphonate]
The inhibition in vivo at 5 mg/kg of the first is lower: 29% for the first, 53% for the second.

In the case of `O=P(O)(O)C(O)(C[C@@H]1CC[C@@H](Oc2ccccc2)C1)P(=O)(O)O` (relative stereo) [Example 20, Disodium {1-hydroxy-2-[(1R*,3R*)-3-phenoxycyclopentyl]ethane-1,1-diyl}bisphosphonate], the inhibition in vivo at 5 mg/kg is reported as 46%.

same assay, conditions: 336 h, dose 10 mg/kg, oral, once a day for 2 weeks, aortic phosphorus relative to control (vehicle), read-out: Rate of inhibition (%) of ectopic calcification

Compared with `CC(C1CCC1)C(O)(P(=O)(O)O)P(=O)(O)O` (stereo not drawn) [Example 3, Disodium (2-cyclobutyl-1-hydroxypropane-1,1-diyl)bisphosphonate], `O=P(O)(O)C(O)(CC1CCCCCC1)P(=O)(O)O` [Example 44, Disodium (2-cycloheptyl-1-hydroxyethane-1,1-diyl)bisphosphonate] is higher in inhibition in vivo at 10 mg/kg: 64% for the first, 95% for the second.

same assay, conditions: 336 h, dose 30 mg/kg, oral, once a day for 2 weeks, aortic phosphorus relative to control (vehicle), read-out: Rate of inhibition (%) of ectopic calcification

`CC(C1CCCCC1)C(O)(P(=O)(O)O)P(=O)(O)O` (stereo not drawn) [Example 28, Disodium (2-cyclohexyl-1-hydroxypropane-1,1-diyl)bisphosphonate] and `O=P(O)(O)C(O)(CC1CCCC1)P(=O)(O)O` [Example 6, Disodium (2-cyclopentyl-1-hydroxyethane-1,1-diyl)bisphosphonate] are the same in inhibition in vivo at 30 mg/kg: 95% for the first, 95% for the second.

system: carotid artery intima-media thicknesses; assay: not given; conditions: type 2 diabetic patients; cited from earlier work

For `CC(O)(P(=O)(O)O)P(=O)(O)O` [etidronate, Etidronate], the “carotid artery intima-media thickness” value is listed as “significantly decrease the carotid artery intima-media thicknesses”.
